Values quoted from earlier work, collected in US12251376B2, “Combinations with thiazolidinediones for use in the prevention or treatment of abnormal bone growth” (SERVIZO GALEGO DE SAÚDE (SERGAS), priority 2019, dated 2025).
Where “and” joins values, the source holds several entries; their conditions need not be identical. Equal values may be shown once.

Experiments:
abnormal bone growth = settings: for preventing recurrence of heterotopic ossification after total hip replacement: state of the art
[1] = not given; remark: listed apart in the source
[2] = not given; remark: listed apart in the source

CC(=O)Oc1ccccc1C(=O)O [aspirin]
preventing recurrence of heterotopic ossification after total hip replacement (abnormal bone growth): some effect

CC(C)Cc1ccc(C(C)C(=O)O)cc1 (centres unmarked) [ibuprofen]
preventing recurrence of heterotopic ossification after total hip replacement (abnormal bone growth): some effect

COc1ccc2c(c1)c(CC(=O)O)c(C)n2C(=O)c1ccc(Cl)cc1 [indomethacin]
reduction of abnormal bone growth (clinical data) (abnormal bone growth; 75 mg retard administration): significantly reduce | preventing recurrence of heterotopic ossification after total hip replacement (abnormal bone growth): some effect | Bioavailability (oral): total

CCc1ccc(CCOc2ccc(CC3SC(=O)NC3=O)cc2)nc1 (centres unmarked) [pioglitazone]
solubility [1]: highly insoluble | doses shown safe in clinical trials [2]: up to 180 mg/day | Volume of distribution (in vivo): 0.25 L/kg | Bioavailability (oral): > 80% and ~83% | time of maximum plasma dose after oral administration (oral): 2 h | increase of plasma concentration with dose (tested from 2 mg to 60 mg): Linear increase
